Assay results reported in patent publication US20090227617A1, “Esters Of Glucuronide Prodrugs Of Anthracyclines And Method Of Preparation And Use In Tumor-Selective Chemotherapy” (Pharmachemie B.V., priority 2008, published 2009).
Where two headings read alike, the source gives them in different places.

Assays:
OVCAR-3 cells = test: In vitro antiproliferative effects in OVCAR-3 cells (crystal violet assay), with or without bovine beta-glucuronidase (GUS); type: cell-based, human; settings: for IC50: 3 days incubation; for toxicity compared with doxorubicin: in the presence of GUS
Experimental: The toxicity of the prodrugs was tested with OVCAR-3 cells. The cells were incubated for 3 days with the different prodrugs DOX-alGA3, DOX-mPEG4-GA3, DOX-mPEG7-GA3, and for comparison also with Doxorubicin, in fetal bovine serum (FBS), in the presence or absence of bovine beta-glucuronidase (GUS).
The concentrations used for the prodrugs ranged from 0.001 μM to 50 μM.
In vitro antiproliferative effects in OVCAR-3 cells after 3 days of incubation with the different (pro)-drugs DOX, DOX-alGA3, DOX-mPEG4-GA3 and DOX-mPEG7-GA3 in the presence or absence of bovine beta-glucuronidase(GUS).
The concentrations used for the prodrugs ranged from 0.001 μM to 50 μM, the GUS enzyme was added to give a final concentration of 10 units/μl. Adjacent to this, cells treated with the prodrugs were incubated without GUS. Incubation was conducted at 37° C. in a humidified, 5% CO2 incubator of three days. Cell growth is measured by crystal violet assay, untreated cells are set at 100%. The IC50 values found in these experiments are depicted in the table beneath.
The human ovarian cancer (OVCAR3) cell line was maintained in DMEM supplemented with 10% heat inactivated FBS and 1% P/S. Inhibition of proliferation of the OVCAR cell line by the doxorubicin prodrugs Dox-allyl, Dox-mGA3, Dox-mPEG4 and Dox-mPEG7 was determined using a crystal violet assay. The assay was preformed in a 96-wells plate. Cells that were harvested by trypsinisation were seeded with 5.000 cells in 100 μl medium per well. The 96-wells plate was incubated overnight at 37° C. in a humidified, 5% CO2 incubator. The different prodrugs were added in concentrations between 0.001 μM to 50 μM. Subsequently, the GUS enzyme was added to give a final concentration of 10 units/μl. This mixture was incubated at 37° C. in a humidified, 5% CO2 incubator for tree days. Subsequently, the cells were stained and fixed with 50 μl 1% crystal violet in 70% ethanol. The cells were washed with water and resolubilized in 100 μl 1% SDS. After this the absorbance was read at 550 nm. The blank extinction values were determined on wells in which no cells were seeded were subtracted from the signals. Inhibition concentrations 50% (IC50) were derived by plotting the inhibition of cell proliferation at different concentrations of the prodrug and non-linear curve fitting.

Solubility in water = type: physicochemical
Experimental: For DOX-triazol ester 1 (DOX-mPEG4GA3) about 0.6 mg prodrug dissolve in 1 ml of water whereas for DOX-mPEG7GA3 already 2.5 mg dissolve in 1 ml of water and for DOX-mPEG12GA3 this has reached more than 15 mg in 1 ml of water.

[1] = tumor bearing mice, half of the MTD; cited from earlier work
tumor bearing mice = settings: based on 10% weight loss, i.v.; cited from earlier work
[2] = has to be administered in a vehicle containing Cremophore EL; cited from earlier work
carboxyl esterases [3] = settings: mouse plasma; cited from earlier work
[4] = cited from earlier work
carboxyl esterases [5] = settings: human plasma; cited from earlier work
[6] = Hydrolysis of prodrug esters in phosphate buffer pH 7.33, followed by reverse phase TLC; type: physicochemical; settings: phosphate buffer pH=7.33, room temperature
From the text: hydrolyze faster than alkyl esters like DOX-mGA3 due to the better leaving ability of the ester group of 1. This is caused by the electron-withdrawing properties of the triazol functionality. Indeed in a phosphate buffer with pH=7.33 it took 24 hrs at room temperature before DOX-mGA3 was completely hydrolyzed. The DOX derivatives of 1 with n=7 or 12 and x=1 (DOX-mPEG7GA3 and DOX-mPEG12GA3) were, nevertheless, already hydrolyzed within 4 hrs under these circumstances.
The hydrolysis of the DOX esters were qualitatively followed with reverse phase TLC (RP18). With eluens acetonitril/water: 42/58 in a phosphate buffer (KH2PO4/Na2HPO4) of pH=7.33.
DOX-mGA3 0.29 mg was dissolved in 1 ml of buffer together with some drops of DMSO to keep the DOX-mGA3 dissolved. It took 24 hrs before the starting compound had disappeared.
In the same way the hydrolysis of DOX-triazol esters 1 (n=, 7 and 12, x=1) were followed for 0.35 mg/ml and 0.45 mg/ml buffer. Both esters were completely hydrolyzed within 4 hrs.

[7] = bovine beta-glucuronidase 10 units/μL, read-out: IC50 (M) with GUS (10 units/μL)
[8] = no GUS, read-out: IC50 (M) No GUS

| Structure (SMILES) | IC50 (OVCAR-3 cells; [7]) [M] | IC50 (OVCAR-3 cells; [8]) [M] | toxicity compared with doxorubicin (OVCAR-3 cells) | solubility in water (Solubility in water) | further results |
| --- | --- | --- | --- | --- | --- |
| C=CCOC(=O)C1OC(OC(=O)Nc2ccc(COC(=O)NC3CC(OC4CC(O)(C(=O)CO)Cc5c(O)c6c(c(O)c54)C(=O)c4c(OC)cccc4C6=O)OC(C)C3O)cc2)C(O)C(O)C1O (centres unmarked) [DOX-alGA3] | 5.84e-08 | 9.81e-06 | comparable toxicity as doxorubicin | – | – |
| COCCOCCOCCOCCOCCOCCOCCn1cc(COC(=O)C2OC(OC(=O)Nc3ccc(COC(=O)NC4CC(OC5CC(O)(C(=O)CO)Cc6c(O)c7c(c(O)c65)C(=O)c5c(OC)cccc5C7=O)OC(C)C4O)cc3)C(O)C(O)C2O)nn1 (centres unmarked) [DOX-mPEG7-GA3] | 7.74e-08 | 8.33e-06 | slightly less toxic | 2.5 mg in 1 ml of water | – |
| COc1cccc2c1C(=O)c1c(O)c3c(c(O)c1C2=O)CC(O)(C(=O)CO)CC3OC1CC(NC(=O)OCc2ccc(NC(=O)OC3OC(C(=O)O)C(O)C(O)C3O)cc2)C(O)C(C)O1 (centres unmarked) [DOX-GA3] | – | – | – | – | concentrations of doxorubicin in plasma versus administration of doxorubicin [1]: significantly lower concentrations of doxorubine in plasma; concentrations of doxorubicin in tumor tissue versus administration of doxorubicin [1]: higher; maximum tolerated dose (MTD) (tumor bearing mice): approximately 500 mg/kg |
| COc1cccc2c1C(=O)c1c(O)c3c(c(O)c1C2=O)C[C@@](O)(C(=O)CO)C[C@@H]3O[C@H]1C[C@H](N)[C@H](O)[C@H](C)O1 [DOX, doxorubicin, reference compound] | – | 6.19e-08 | – | – | maximum tolerated dose (MTD) (tumor bearing mice): 8 mg/kg |
| COCCOCCOCCOCCn1cc(COC(=O)C2OC(OC(=O)Nc3ccc(COC(=O)NC4CC(OC5CC(O)(C(=O)CO)Cc6c(O)c7c(c(O)c65)C(=O)c5c(OC)cccc5C7=O)OC(C)C4O)cc3)C(O)C(O)C2O)nn1 (centres unmarked) [DOX-mPEG4-GA3] | 6.21e-08 | 2.21e-05 | comparable toxicity as doxorubicin | about 0.6 mg in 1 ml of water | – |
| COC(=O)C1OC(OC(=O)Nc2ccc(COC(=O)NC3CC(OC4CC(O)(C(=O)CO)Cc5c(O)c6c(c(O)c54)C(=O)c4c(OC)cccc4C6=O)OC(C)C3O)cc2)C(O)C(O)C1O (centres unmarked) [DOX-mGA3] | – | – | – | – | solubility in water (in words) (Solubility in water): completely insoluble in water; solubility in water (in words, background) [2]: very bad solubility in water; half time of conversion to DOX-GA3 (carboxyl esterases [3]): approximately 05 min; pharmacokinetics in mice (in words) [4]: improved pharmacokinetics; half time of conversion to DOX-GA3 (carboxyl esterases [5]): ~2.5 h; time until completely hydrolyzed [6]: 24 h |
| COCCOCCOCCOCCOCCOCCOCCOCCOCCOCCOCCOCCn1cc(COC(=O)C2OC(OC(=O)Nc3ccc(COC(=O)NC4CC(OC5CC(O)(C(=O)CO)Cc6c(O)c7c(c(O)c65)C(=O)c5c(OC)cccc5C7=O)OC(C)C4O)cc3)C(O)C(O)C2O)nn1 (centres unmarked) [DOX-mPEG12GA3] | – | – | – | more than 15 mg in 1 ml of water | – |
